Source: PubChem BioAssay (NCI)
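In this assay, cells in 96-well plates receive the compound at five concentrations for 48 hours. Endpoints are linearly interpolated between the surrounding concentrations. The concentration for 50% growth inhibition is given as GI50. The concentration for full growth arrest is given as TGI.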

Key:
Assay in all cases: NCI-60 cell line screen, 48 h
SF-268 CNS = tested on: SF-268 CNS
HCC-2998 colon = tested on: HCC-2998 colon
OVCAR-3 ovarian = tested on: OVCAR-3 ovarian
K-562 leukemia = tested on: K-562 leukemia
HCT-15 colon = tested on: HCT-15 colon
UACC-257 melanoma = tested on: UACC-257 melanoma
786-0 renal = tested on: 786-0 renal
UACC-62 melanoma = tested on: UACC-62 melanoma
NCI-H522 lung = tested on: NCI-H522 lung
RXF 393 renal = tested on: RXF 393 renal

SMILES	GI50 (SF-268 CNS)	TGI (SF-268 CNS)	GI50 (HCC-2998 colon)	TGI (HCC-2998 colon)	GI50 (OVCAR-3 ovarian)	TGI (OVCAR-3 ovarian)	GI50 (K-562 leukemia)	TGI (K-562 leukemia)	GI50 (HCT-15 colon)	TGI (HCT-15 colon)	GI50 (UACC-257 melanoma)	TGI (UACC-257 melanoma)	GI50 (786-0 renal)	TGI (786-0 renal)	TGI (UACC-62 melanoma)	TGI (NCI-H522 lung)	GI50 (RXF 393 renal)	TGI (RXF 393 renal)	GI50 (UACC-62 melanoma)	GI50 (NCI-H522 lung)
Ic1ccc(Nc2nc3nonc3nc2Nc2ccc(I)cc2)cc1	0.304 µM	> 100 µM	0.326 µM	> 100 µM	0.214 µM	> 100 µM	0.091 µM	> 100 µM	0.144 µM	> 100 µM	0.2 µM	0.772 µM	0.332 µM	> 100 µM	–	–	–	–	–	–
COc1ccc(OC)c(NC(=O)C(=O)NNC(=O)c2sc(NNC(C)=O)nc2C)c1	–	75.9 µM	–	> 100 µM	–	66.3 µM	–	43.1 µM	–	> 100 µM	–	61.5 µM	–	> 100 µM	81.5 µM	44.3 µM	–	–	–	–
O=Cc1cc2c(cc1-c1c(C=O)ccc3c1OCO3)OCO2	–	> 10 µM	–	> 10 µM	–	> 10 µM	–	> 10 µM	–	> 10 µM	–	> 10 µM	–	> 10 µM	> 10 µM	–	–	–	–	–
Cc1ccc(SC(C)/C=C/NNC2=NC(c3ccccc3)C(c3ccccc3)=NN2)cc1 (stereo not given)	–	> 100 µM	–	98.2 µM	–	> 100 µM	–	> 100 µM	–	> 100 µM	–	> 100 µM	–	> 100 µM	48.7 µM	88.9 µM	–	–	–	–
C[C@H]1c2cccc(O)c2C(O)=C2C(=O)[C@]3(O)C(O)=C(C(N)=O)C(=O)[C@@H](N(C)C)[C@@H]3[C@@H](O)[C@@H]21	3.33 µM	12.1 µM	2.97 µM	12.7 µM	2.5 µM	6.85 µM	–	–	3.46 µM	16 µM	3.19 µM	13.9 µM	3.26 µM	12.5 µM	9.68 µM	12.4 µM	3.79 µM	33.9 µM	2.53 µM	3.16 µM
CC(C)(C)[SiH]12(OC(C(F)(F)F)(C(F)(F)F)c3ccccc31)OC(C(F)(F)F)(C(F)(F)F)c1ccccc12	–	–	–	12.9 µM	–	16.6 µM	–	18.2 µM	–	4.77 µM	–	27.7 µM	–	11.1 µM	–	17.7 µM	–	–	–	–
COC(=O)c1cc2c3ccccc3n(C(C)=O)c2cn1	–	–	–	> 100 µM	–	> 100 µM	–	> 100 µM	–	> 100 µM	–	> 100 µM	–	> 100 µM	> 100 µM	> 100 µM	–	87.1 µM	–	–
COC(=O)C1=C(c2ccc3c(c2)OCO3)O[C@H](c2cc(OC)c(OC)c(OC)c2)[C@H]1COC(C)=O	–	> 100 µM	–	19.6 µM	–	8.22 µM	–	> 100 µM	–	> 100 µM	–	56 µM	–	42.3 µM	47.6 µM	–	–	5.09 µM	–	–
COc1ccc(NC(=O)CCc2cc(-c3ccc(O)c(OC)c3)nc(NC#N)n2)cc1	–	> 100 µM	–	> 100 µM	–	> 100 µM	–	> 100 µM	–	> 100 µM	–	> 100 µM	–	> 100 µM	> 100 µM	–	–	> 100 µM	–	–
COc1ncnc(C2CC2)c1-c1ncc2cnn(Cc3ccc(-c4nc(C(F)(F)F)cn4C(C)C)cc3)c2n1	16.2 µM	80.9 µM	23.3 µM	> 100 µM	22.2 µM	76.5 µM	13.9 µM	> 100 µM	17 µM	90.7 µM	18.4 µM	58.8 µM	31.4 µM	> 100 µM	–	48.3 µM	6.5 µM	39.8 µM	–	8.52 µM
